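Following 48 hours of exposure in 96-well plates, responses at five concentrations were used to interpolate endpoints linearly. GI50: concentration for 50% inhibition of growth.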 The source made the active and inactive calls. No stated cut-off is given here; in the data, active = GI50 up to about 1.1 µM and inactive = higher.
Tests used:
Experiment in all cases: NCI tumour cell line growth inhibition, 48 h
[1] = test system: ACHN
[2] = test system: NCI-H23
[3] = test system: TK-10
[4] = test system: HCT-116
[5] = test system: HCC 2998
[6] = test system: 786-0
[7] = test system: CCRF-CEM
[8] = test system: SNB-19
[9] = test system: OVCAR-5
[10] = test system: HL-60
[11] = test system: HOP-92
[12] = test system: OVCAR-8
[13] = test system: MDA-N
[14] = test system: SF-268
[15] = test system: LOX IMVI
[16] = test system: SK-MEL-2
[17] = test system: NCI-H460
[18] = test system: A549
[19] = test system: DU-145

Structure (SMILES) | GI50 [1] | GI50 [2] | GI50 [3] | GI50 [4] | GI50 [5] | GI50 [6] | GI50 [7] | GI50 [8] | GI50 [9] | GI50 [10] | GI50 [11] | GI50 [12] | GI50 [13] | GI50 [14] | GI50 [15] | GI50 [16] | GI50 [17] | GI50 [18] | GI50 [19]
O=C(O)CC1(C(=O)O)CCCCC1 | > 100 µM (inactive) | > 100 µM (inactive) | > 100 µM (inactive) | > 100 µM (inactive) | > 100 µM (inactive) | > 100 µM (inactive) | > 100 µM (inactive) | > 100 µM (inactive) | > 100 µM (inactive) | > 100 µM (inactive) | > 100 µM (inactive) | > 100 µM (inactive) | > 100 µM (inactive) | > 100 µM (inactive) | > 100 µM (inactive) | > 100 µM (inactive) | > 100 µM (inactive) | > 100 µM (inactive) | > 100 µM (inactive)
CN(C)CCCNC(=O)CCNC(=O)c1cc(NC(=O)c2cc(NC(=O)c3cc(NC(=O)c4nccn4C)cn3C)cn2C)cn1C | > 100 µM (inactive) | > 100 µM (inactive) | > 100 µM (inactive) | > 100 µM (inactive) | > 100 µM (inactive) | > 100 µM (inactive) | > 46.8 µM (inactive) | 29.6 µM (inactive) | > 100 µM (inactive) | 18.8 µM (inactive) | > 100 µM (inactive) | > 100 µM (inactive) | > 100 µM (inactive) | 44.8 µM (inactive) | 21.9 µM (inactive) | > 100 µM (inactive) | > 100 µM (inactive) | > 100 µM (inactive) | > 100 µM (inactive)
CSC1=NS(=O)(=O)c2cc(C(=O)NN(C)C(=O)c3cc4c(cc3Cl)SC(SC)=NS4(=O)=O)c(Cl)cc2S1 | > 10 µM (inactive) | > 10 µM (inactive) | > 10 µM (inactive) | > 10 µM (inactive) | > 10 µM (inactive) | > 10 µM (inactive) | > 10 µM (inactive) | > 10 µM (inactive) | > 10 µM (inactive) | > 10 µM (inactive) | > 10 µM (inactive) | > 10 µM (inactive) | > 10 µM (inactive) | > 10 µM (inactive) | > 10 µM (inactive) | > 10 µM (inactive) | > 10 µM (inactive) | > 10 µM (inactive) | > 10 µM (inactive)
CCN1C(NCCO)=NS(=O)(=O)c2ccccc21 | > 100 µM (inactive) | > 100 µM (inactive) | > 100 µM (inactive) | > 100 µM (inactive) | > 100 µM (inactive) | > 100 µM (inactive) | > 100 µM (inactive) | > 100 µM (inactive) | > 100 µM (inactive) | > 100 µM (inactive) | > 100 µM (inactive) | > 100 µM (inactive) | > 100 µM (inactive) | > 100 µM (inactive) | > 100 µM (inactive) | > 100 µM (inactive) | > 100 µM (inactive) | > 100 µM (inactive) | > 100 µM (inactive)
CC1(C)CC2=C(Sc3ccccc3N2)C(=O)C1C(=O)C(=O)Nc1cccc([N+](=O)[O-])c1 (stereo not drawn) | > 100 µM (inactive) | > 100 µM (inactive) | > 100 µM (inactive) | > 100 µM (inactive) | > 100 µM (inactive) | > 100 µM (inactive) | 0.0738 µM (active) | > 100 µM (inactive) | > 100 µM (inactive) | > 100 µM (inactive) | > 100 µM (inactive) | > 100 µM (inactive) | > 100 µM (inactive) | > 100 µM (inactive) | > 100 µM (inactive) | > 100 µM (inactive) | > 100 µM (inactive) | > 100 µM (inactive) | > 100 µM (inactive)
C=C1c2nc3ccccc3n2C=C(c2ccc(OC)cc2)N1c1ccc(OCCN2CCCCC2)cc1 | 8.24 µM (inactive) | 6.32 µM (inactive) | 14.8 µM (inactive) | 5.83 µM (inactive) | 16 µM (inactive) | 14.2 µM (inactive) | 2.79 µM (inactive) | 11.3 µM (inactive) | > 74.1 µM (inactive) | 3.58 µM (inactive) | 28.1 µM (inactive) | 7.76 µM (inactive) | 19.7 µM (inactive) | > 30.4 µM (inactive) | 7.41 µM (inactive) | 22.1 µM (inactive) | 2.47 µM (inactive) | 17.6 µM (inactive) | 13.1 µM (inactive)
Clc1ccccc1/C=C/c1ccnc2ccccc12 | 16.5 µM (inactive) | 14.1 µM (inactive) | 18 µM (inactive) | 15.7 µM (inactive) | 18.2 µM (inactive) | 15.8 µM (inactive) | 20.5 µM (inactive) | 16.8 µM (inactive) | 19.9 µM (inactive) | 19.8 µM (inactive) | 10.2 µM (inactive) | 18.3 µM (inactive) | 14.6 µM (inactive) | 18.9 µM (inactive) | 18.4 µM (inactive) | 16.6 µM (inactive) | 16.2 µM (inactive) | 16.2 µM (inactive) | 15.7 µM (inactive)
